In ChEMBL document CHEMBL1151505, “Imino 1,2,3,4-tetrahydrocyclopent[b]indole carbamates as dual inhibitors of acetylcholinesterase and monoamine oxidase” (Bioorg Med Chem Lett, 1996):
“And” between values parts separate entries of the source, which are not always exact repeats. Equal values may be shown once. The source made the active and inactive calls. The calls are words filed in the database; no cut-off is given here.

How the values were obtained:
[1] = target: T1, Amine oxidase [flavin-containing] B (Homo sapiens, UniProt P27338); assay: Compound was tested for inhibition of monoamine oxidase-B (MAO-B).
T1 sequence (P27338 whole entry): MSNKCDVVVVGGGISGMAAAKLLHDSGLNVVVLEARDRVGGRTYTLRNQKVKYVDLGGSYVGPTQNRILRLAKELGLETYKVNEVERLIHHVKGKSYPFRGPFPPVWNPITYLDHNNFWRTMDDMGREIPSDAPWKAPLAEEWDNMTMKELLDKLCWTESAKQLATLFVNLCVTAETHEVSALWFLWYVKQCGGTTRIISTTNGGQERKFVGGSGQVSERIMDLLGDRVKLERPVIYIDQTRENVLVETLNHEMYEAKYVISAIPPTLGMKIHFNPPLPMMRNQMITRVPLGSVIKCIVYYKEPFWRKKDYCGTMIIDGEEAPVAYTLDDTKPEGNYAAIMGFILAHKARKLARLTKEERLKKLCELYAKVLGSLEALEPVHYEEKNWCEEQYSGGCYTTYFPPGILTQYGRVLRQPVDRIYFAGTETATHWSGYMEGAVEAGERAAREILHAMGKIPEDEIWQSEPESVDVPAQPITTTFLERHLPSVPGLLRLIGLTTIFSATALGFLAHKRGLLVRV

[2] = target: T2, Amine oxidase [flavin-containing] A (Homo sapiens, UniProt P21397); assay: Compound was tested for inhibition of monoamine oxidase-A (MAO-A).
T2 sequence (P21397 whole entry): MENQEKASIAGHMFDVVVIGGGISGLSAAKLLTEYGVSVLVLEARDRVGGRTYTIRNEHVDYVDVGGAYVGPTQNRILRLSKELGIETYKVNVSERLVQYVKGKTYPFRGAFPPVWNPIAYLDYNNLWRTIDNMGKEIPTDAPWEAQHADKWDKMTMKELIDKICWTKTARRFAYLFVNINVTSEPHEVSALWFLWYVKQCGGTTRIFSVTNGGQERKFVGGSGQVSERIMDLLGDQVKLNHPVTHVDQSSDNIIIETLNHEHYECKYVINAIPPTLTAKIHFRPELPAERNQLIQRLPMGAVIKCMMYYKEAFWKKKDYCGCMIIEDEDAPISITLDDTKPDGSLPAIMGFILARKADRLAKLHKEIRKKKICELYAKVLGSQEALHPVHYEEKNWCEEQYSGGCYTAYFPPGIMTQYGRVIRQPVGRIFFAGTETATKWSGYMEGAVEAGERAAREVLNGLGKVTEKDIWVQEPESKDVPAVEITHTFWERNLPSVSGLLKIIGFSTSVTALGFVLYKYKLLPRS

Acetylcholinesterase [3] = target: T3, Acetylcholinesterase (Homo sapiens, UniProt P22303); assay: Inhibition of acetylcholinesterase.
T3 sequence (P22303 whole entry): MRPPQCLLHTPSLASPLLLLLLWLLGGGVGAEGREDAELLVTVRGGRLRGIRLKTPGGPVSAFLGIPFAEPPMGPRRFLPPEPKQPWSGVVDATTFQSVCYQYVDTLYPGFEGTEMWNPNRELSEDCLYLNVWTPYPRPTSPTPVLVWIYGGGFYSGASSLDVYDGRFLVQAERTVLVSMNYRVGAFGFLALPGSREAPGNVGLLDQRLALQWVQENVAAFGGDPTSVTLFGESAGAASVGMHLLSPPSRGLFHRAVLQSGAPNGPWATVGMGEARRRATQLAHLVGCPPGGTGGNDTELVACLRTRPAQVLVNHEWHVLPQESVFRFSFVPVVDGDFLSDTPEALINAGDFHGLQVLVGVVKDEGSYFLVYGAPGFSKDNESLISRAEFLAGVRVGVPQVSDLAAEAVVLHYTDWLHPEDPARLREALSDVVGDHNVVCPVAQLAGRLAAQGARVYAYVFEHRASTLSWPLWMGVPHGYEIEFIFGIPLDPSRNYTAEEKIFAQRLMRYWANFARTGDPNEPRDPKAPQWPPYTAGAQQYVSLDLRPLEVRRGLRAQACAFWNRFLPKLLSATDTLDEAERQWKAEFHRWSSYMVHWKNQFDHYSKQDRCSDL

[4] = target: T1, Amine oxidase [flavin-containing] B; assay: Compound was tested for inhibition of monoamine oxidase-B (MAO-B) at 10 mg/kg dose upon peroral administration in 48 hr time interval; assay type: organism-based; parameters: dose 10 mg/kg, route oral; conditions: po
[5] = target: T1, Amine oxidase [flavin-containing] B; assay: Compound was tested for inhibition of monoamine oxidase-B (MAO-B) at 10 mg/kg dose upon peroral administration in 4 hr time interval; assay type: organism-based; parameters: dose 10 mg/kg, route oral; conditions: po
[6] = target: T1, Amine oxidase [flavin-containing] B; assay: Compound was tested for inhibition of monoamine oxidase-B (MAO-B) at 10 mg/kg dose upon peroral administration in 1 hr time interval; assay type: organism-based; parameters: dose 10 mg/kg, route oral; conditions: po
[7] = target: T1, Amine oxidase [flavin-containing] B; assay: Compound was tested for inhibition of monoamine oxidase-B (MAO-B) at 10 mg/kg dose upon peroral administration in 24 hr time interval; assay type: organism-based; parameters: dose 10 mg/kg, route oral; conditions: po
[8] = target: T2, Amine oxidase [flavin-containing] A; assay: Compound was tested for inhibition of monoamine oxidase-A (MAO-A) at 10 mg/kg dose upon peroral administration in 1 hr time interval; assay type: organism-based; parameters: dose 10 mg/kg, route oral; conditions: po
[9] = target: T2, Amine oxidase [flavin-containing] A; assay: Compound was tested for inhibition of monoamine oxidase-A (MAO-A) at 10 mg/kg dose upon peroral administration in 24 hr time interval; assay type: organism-based; parameters: dose 10 mg/kg, route oral; conditions: po
[10] = target: T2, Amine oxidase [flavin-containing] A; assay: Compound was tested for inhibition of monoamine oxidase-A (MAO-A) at 10 mg/kg dose upon peroral administration in 48 hr time interval; assay type: organism-based; parameters: dose 10 mg/kg, route oral; conditions: po
[11] = target: T2, Amine oxidase [flavin-containing] A; assay: Compound was tested for inhibition of monoamine oxidase-A (MAO-A) at 10 mg/kg dose upon peroral administration in 4 hr time interval; assay type: organism-based; parameters: dose 10 mg/kg, route oral; conditions: po
Acetylcholinesterase [12] = target: T3, Acetylcholinesterase; conditions: 10 mg/kg
Description: Compound was tested for inhibition of acetylcholinesterase at 10 mg/kg dose upon peroral administration in 0.5 hr time interval

Acetylcholinesterase [13] = target: T3, Acetylcholinesterase; conditions: 10 mg/kg; remark: listed apart in the source
Description: Compound was tested for inhibition of acetylcholinesterase at 10 mg/kg dose upon peroral administration in 1 hr time interval

Acetylcholinesterase [14] = target: T3, Acetylcholinesterase; conditions: 10 mg/kg; remark: listed apart in the source
Description: Compound was tested for inhibition of acetylcholinesterase at 10 mg/kg dose upon peroral administration in 4 hr time interval

Acetylcholinesterase [15] = target: T3, Acetylcholinesterase; conditions: 10 mg/kg; remark: listed apart in the source
Description: Compound was tested for inhibition of acetylcholinesterase at 10 mg/kg dose upon peroral administration in 24 hr time interval

Acetylcholinesterase [16] = target: T3, Acetylcholinesterase; assay: Compound was tested for inhibition of acetylcholinesterase at […] dose upon peroral administration in 0.5 hr time interval
Acetylcholinesterase [17] = target: T3, Acetylcholinesterase; assay: Compound was tested for inhibition of acetylcholinesterase at 50 mg/kg dose upon peroral administration in 24 hr time interval; assay type: organism-based; parameters: dose 50 mg/kg
Acetylcholinesterase [18] = target: T3, Acetylcholinesterase; assay: Compound was tested for inhibition of acetylcholinesterase at 50 mg/kg dose upon peroral administration in 1 hr time interval; assay type: organism-based; parameters: dose 50 mg/kg
Acetylcholinesterase [19] = target: T3, Acetylcholinesterase; assay: Compound was tested for inhibition of acetylcholinesterase at 50 mg/kg dose upon peroral administration in 4 hr time interval; assay type: organism-based; parameters: dose 50 mg/kg
[20] = target: T1, Amine oxidase [flavin-containing] B; assay: Compound was tested for inhibition of monoamine oxidase-B (MAO-B) at 50 mg/kg dose upon peroral administration in 0.5 hr time interval; assay type: organism-based; parameters: dose 50 mg/kg, route oral; conditions: po
[21] = target: T1, Amine oxidase [flavin-containing] B; assay: Compound was tested for inhibition of monoamine oxidase-B (MAO-B) at 50 mg/kg dose upon peroral administration in 1 hr time interval; assay type: organism-based; parameters: dose 50 mg/kg, route oral; conditions: po
[22] = target: T1, Amine oxidase [flavin-containing] B; assay: Compound was tested for inhibition of monoamine oxidase-B (MAO-B) at 50 mg/kg dose upon peroral administration in 24 hr time interval; assay type: organism-based; parameters: dose 50 mg/kg, route oral; conditions: po
[23] = target: T1, Amine oxidase [flavin-containing] B; assay: Compound was tested for inhibition of monoamine oxidase-B (MAO-B) at 50 mg/kg dose upon peroral administration in 48 time interval; assay type: organism-based; parameters: dose 50 mg/kg, route oral; conditions: po
[24] = target: T1, Amine oxidase [flavin-containing] B; assay: Compound was tested for inhibition of monoamine oxidase-B (MAO-B) at 50 mg/kg dose upon peroral administration in 4 hr time interval; assay type: organism-based; parameters: dose 50 mg/kg, route oral; conditions: po
[25] = target: T2, Amine oxidase [flavin-containing] A; assay: Compound was tested for inhibition of monoamine oxidase-A (MAO-A) at 50 mg/kg dose upon peroral administration in 0.5 hr time interval; assay type: organism-based; parameters: dose 50 mg/kg, route oral; conditions: po
[26] = target: T2, Amine oxidase [flavin-containing] A; assay: Compound was tested for inhibition of monoamine oxidase-A (MAO-A) at 50 mg/kg dose upon peroral administration in 1 hr time interval; assay type: organism-based; parameters: dose 50 mg/kg, route oral; conditions: po
[27] = target: T2, Amine oxidase [flavin-containing] A; assay: Compound was tested for inhibition of monoamine oxidase-A (MAO-A) at 50 mg/kg dose upon peroral administration in 24 hr time interval; assay type: organism-based; parameters: dose 50 mg/kg, route oral; conditions: po
[28] = target: T2, Amine oxidase [flavin-containing] A; assay: Compound was tested for inhibition of monoamine oxidase-A (MAO-A) at 50 mg/kg dose upon peroral administration in 48 time interval; assay type: organism-based; parameters: dose 50 mg/kg, route oral; conditions: po
[29] = target: T2, Amine oxidase [flavin-containing] A; assay: Compound was tested for inhibition of monoamine oxidase-A (MAO-A) at 50 mg/kg dose upon peroral administration in 4 hr time interval; assay type: organism-based; parameters: dose 50 mg/kg, route oral; conditions: po
[30] = target: T1, Amine oxidase [flavin-containing] B; assay: Compound was tested for inhibition of monoamine oxidase-B (MAO-B) at 50 mg/kg dose upon peroral administration in 48 hr time interval; assay type: organism-based; parameters: dose 50 mg/kg, route oral; conditions: in vivo, po
[31] = target: T2, Amine oxidase [flavin-containing] A; assay: Compound was tested for inhibition of monoamine oxidase-A (MAO-A) at 50 mg/kg dose upon peroral administration in 48 hr time interval; assay type: organism-based; parameters: dose 50 mg/kg, route oral; conditions: po
Acetylcholinesterase [32] = target: T3, Acetylcholinesterase; conditions: 50 mg/kg
Acetylcholinesterase [33] = target: T3, Acetylcholinesterase; conditions: 50 mg/kg; remark: listed apart in the source
Acetylcholinesterase [34] = target: T3, Acetylcholinesterase; conditions: 50 mg/kg; remark: listed apart in the source

| Compound | IC50 [1] | IC50 [2] | IC50 (Acetylcholinesterase [3]) | also measured |
| --- | --- | --- | --- | --- |
| CC(C)/N=C1/CCc2c1n(C)c1ccccc21 | > 1000 µM | 30.8 µM | – | – |
| CCC/N=C1/CCc2c1n(C)c1ccc(OC(=O)NC)cc21 | > 1000 µM | 25.4 µM | 3.84 µM | – |
| COc1cc(Br)c2oc(C3CCNCC3)cc2c1 [BROFAROMINE] | 23.4 µM | 0.18 µM | – | inhibition at 10 mg/kg [4]: 18.3%; inhibition at 10 mg/kg [5]: 42.6%; inhibition at 10 mg/kg [6]: 29.6%; inhibition at 10 mg/kg [7]: 22.2%; inhibition at 10 mg/kg [8]: 52.1%; inhibition at 10 mg/kg [9]: 28.7%; inhibition at 10 mg/kg [10]: 13.2%; inhibition at 10 mg/kg [11]: 64.2% |
| CCCCNC(=O)Oc1ccc2c(c1Br)c1c(n2C)/C(=N\C)CC1 | 175 µM | 0.75 µM | 3.17 µM | – |
| CC/N=C1/CCc2c1n(C)c1ccccc21 | 77.6 µM | 2.12 µM | – | – |
| CCCCCCCNC(=O)Oc1ccc2c(c1)[C@]1(C)CCN(C)[C@@H]1N2C [EPTASTIGMINE] | – | – | 0.009 µM | inhibition (Acetylcholinesterase [12]): 33.2%; inhibition (Acetylcholinesterase [13]): 52.3%; inhibition (Acetylcholinesterase [14]): 72.9%; inhibition (Acetylcholinesterase [15]): 20.8% |
| C/N=C1/CCc2c1n(C)c1cc(Cl)c(OC(=O)NC)cc21 | 395 µM | 22.5 µM | 0.67 µM | – |
| CC/N=C1/CCc2c1n(C)c1ccc(OC(=O)NC)c(Cl)c21 | > 1000 µM | 0.1 µM | 0.16 µM | – |
| CCCn1c2c(c3c(Br)c(OC(=O)NC)ccc31)CC/C2=N/CC | > 1000 µM | > 1000 µM | 0.23 µM | – |
| C/N=C1/CCc2c1n(C)c1ccc(OC(=O)NC)cc21 | > 1000 µM | 13.6 µM | 3.36 µM | – |
| Cn1c2c(c3ccccc31)CC/C2=N/Cc1ccncc1 | > 1000 µM | 113 µM | – | – |
| C/N=C1/CCc2c1n(C)c1ccc(OC(=O)NC)c(Br)c21 | > 1000 µM | 0.65 µM | 0.18 µM | – |
| CCC/N=C1/CCc2c1n(C)c1ccccc21 | > 1000 µM | 1.61 µM | – | – |
| C/N=C1/CCc2c1n(C)c1ccc(OC(=O)NCc3ccccc3)c(Br)c21 | > 1000 µM | 5.47 µM | 4.19 µM | – |
| CNC(=O)Oc1ccc2c(c1)c1c(n2C)/C(=N\CCc2ccccc2)CC1 | > 1000 µM | > 1000 µM | 0.16 µM | – |
| CC/N=C1/CCc2c1n(C)c1ccc(OC(=O)NC)c(Br)c21 | > 1000 µM | 0.21 µM | 0.14 µM | inhibition (Acetylcholinesterase [16]): 15.1%; inhibition (Acetylcholinesterase [17]): 0.2%; inhibition (Acetylcholinesterase [18]): 19.4%; inhibition (Acetylcholinesterase [19]): 30.9%; inhibition at 50 mg/kg [20]: 21.5%; inhibition at 50 mg/kg [21]: 17.2%; inhibition at 50 mg/kg [22]: 17.8%; inhibition at 50 mg/kg [23]: 9.3%; inhibition at 50 mg/kg [24]: 25.9%; inhibition at 50 mg/kg [25]: 28.2%; inhibition at 50 mg/kg [26]: 33.3%; inhibition at 50 mg/kg [27]: 13.1%; inhibition at 50 mg/kg [28]: 11.7%; inhibition at 50 mg/kg [29]: 48.9% |
| C/N=C1/CCc2c1n(C)c1ccc(OC(=O)NC)c(Cl)c21 | > 1000 µM | 1.36 µM | 0.23 µM | – |
| CC/N=C1/CCc2c1n(C)c1ccc(OC(=O)NC)cc21 | > 1000 µM | 3.74 µM | 5.68 µM | – |
| C/N=C1/CCc2c1n(C)c1ccc(OC(=O)N(C)C)c(Br)c21 | 51 µM | 0.54 µM | 0.06 µM | inhibition at 50 mg/kg [22]: 6.6%; Inhibition [30]: 10.1% and 20.4%; inhibition at 50 mg/kg [24]: 25.9%; inhibition at 50 mg/kg [26]: 44%; inhibition at 50 mg/kg [27]: 23.2%; inhibition at 50 mg/kg [31]: 22.3%; inhibition at 50 mg/kg [29]: 58.8%; inhibition (Acetylcholinesterase [32]): inactive; inhibition (Acetylcholinesterase [33]): inactive; inhibition (Acetylcholinesterase [34]): inactive |
| C/N=C1/CCc2c1n(C)c1ccccc21 | 317 µM | 0.92 µM | – | – |
